According to ChEMBL document CHEMBL4840365, “BMS-813160: A Potent CCR2 and CCR5 Dual Antagonist Selected as a Clinical Candidate” (ACS Med Chem Lett, 2021):
One block for each molecule: values may come before it.

Key:
[1] = molecular target: T1, C-C chemokine receptor type 1 (Homo sapiens, UniProt P32246); assay: Displacement of [125I]MIP-1alpha from CCR1 in human THP-1 cells incubated for 12 hrs by radioligand competition assay; type: cell-based
T1 sequence (P32246 whole entry): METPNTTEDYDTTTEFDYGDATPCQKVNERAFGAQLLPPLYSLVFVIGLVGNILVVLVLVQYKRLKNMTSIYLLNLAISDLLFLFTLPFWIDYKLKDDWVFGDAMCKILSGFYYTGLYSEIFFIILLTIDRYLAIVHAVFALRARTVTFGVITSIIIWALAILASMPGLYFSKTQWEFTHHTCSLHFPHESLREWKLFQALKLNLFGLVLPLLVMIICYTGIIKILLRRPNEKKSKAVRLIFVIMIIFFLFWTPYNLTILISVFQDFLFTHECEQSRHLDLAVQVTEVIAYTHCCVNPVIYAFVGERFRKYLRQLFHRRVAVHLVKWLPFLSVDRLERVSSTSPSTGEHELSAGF

[2] = molecular target: T2, C-C chemokine receptor type 4 (Homo sapiens, UniProt P51679); assay: Displacement of [125I]chemokine from CCR4 (unknown origin) by gamma counter method
T2 sequence (P51679 whole entry): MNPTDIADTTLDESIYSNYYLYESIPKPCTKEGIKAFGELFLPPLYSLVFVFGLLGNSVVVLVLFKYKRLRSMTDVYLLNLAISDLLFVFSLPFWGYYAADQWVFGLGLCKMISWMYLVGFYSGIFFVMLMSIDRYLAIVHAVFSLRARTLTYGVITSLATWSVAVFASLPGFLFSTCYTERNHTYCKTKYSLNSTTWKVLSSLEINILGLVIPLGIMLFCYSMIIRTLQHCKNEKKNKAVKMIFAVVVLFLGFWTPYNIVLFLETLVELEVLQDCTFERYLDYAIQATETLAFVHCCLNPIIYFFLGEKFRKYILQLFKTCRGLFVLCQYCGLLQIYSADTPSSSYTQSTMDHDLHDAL

[3] = molecular target: T3, C-X-C chemokine receptor type 2 (Homo sapiens, UniProt P25025); assay: Displacement of [125I]-interleukin-8 from human CXCR2 expressed in human pEAK rapid cells incubated for 90 mins by microscintillation counting analysis; type: cell-based
T3 sequence (P25025 whole entry): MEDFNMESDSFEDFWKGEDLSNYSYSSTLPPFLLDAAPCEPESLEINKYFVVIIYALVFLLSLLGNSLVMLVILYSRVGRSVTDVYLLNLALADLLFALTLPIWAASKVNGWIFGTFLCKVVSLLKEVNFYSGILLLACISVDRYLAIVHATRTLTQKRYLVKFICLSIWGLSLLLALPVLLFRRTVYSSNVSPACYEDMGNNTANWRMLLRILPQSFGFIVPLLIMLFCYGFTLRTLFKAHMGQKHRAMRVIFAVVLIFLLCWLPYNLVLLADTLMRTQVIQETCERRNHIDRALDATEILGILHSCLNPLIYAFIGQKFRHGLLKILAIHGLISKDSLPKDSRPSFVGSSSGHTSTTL

[4] = molecular target: C-C chemokine receptor type 2 (Mus musculus, UniProt P51683); assay: Displacement of [125I]-CCL2 from mouse CCR2
[5] = Stability in human liver microsomes assessed as half life at 0.5 uM measured up to 45 mins in the presence of NADPH by LC-MS/MS analysis; type: ADME, Microsome
[6] = Stability in mouse liver microsomes assessed as half life at 0.5 uM measured up to 45 mins in the presence of NADPH by LC-MS/MS analysis; type: ADME, Microsome
[7] = Stability in rat liver microsomes assessed as half life at 0.5 uM measured up to 45 mins in the presence of NADPH by LC-MS/MS analysis; type: ADME, Microsome
[8] = molecular target: hERG (KCNH2) (Homo sapiens, UniProt Q12809); assay: Inhibition of human ERG expressed in HEK293 cells at 30 uM by patch-clamp assay relative to control; type: cell-based; conditions: HEK293 cells that express hERG
[9] = Protein binding in human plasma assessed as unbound fraction at 1 uM by equilibrium dialysis method; type: ADME, cell-free
[10] = Protein binding in mouse plasma assessed as unbound fraction at 1 uM by equilibrium dialysis method; type: ADME, cell-free
[11] = Protein binding in rat plasma assessed as unbound fraction at 1 uM by equilibrium dialysis method; type: ADME, cell-free
[12] = Permeability of the compound at pH 5.5 by PAMPA; type: ADME; conditions: read-out: permeability
[13] = Clearance in mouse at 2 mg/kg, iv; type: ADME, organism-based; conditions: in vivo
[14] = Clearance in rat at 2 mg/kg, iv; type: ADME, organism-based; conditions: in vivo
[15] = Clearance in dog at 1 mg/kg, iv; type: ADME, organism-based, Canis lupus familiaris; conditions: in vivo
[16] = Clearance in cynomolgus monkey at 1 mg/kg, iv; type: ADME, organism-based, Macaca fascicularis; conditions: in vivo
[17] = Oral bioavailability in mouse at 10 mg/kg; type: ADME, organism-based; conditions: in vivo
[18] = Oral bioavailability in rat at 10 mg/kg; type: ADME, organism-based; conditions: in vivo
[19] = Oral bioavailability in dog at 1 mg/kg; type: ADME, organism-based, Canis lupus familiaris; conditions: in vivo
[20] = Oral bioavailability in cynomolgus monkey at 1 mg/kg; type: ADME, organism-based, Macaca fascicularis; conditions: in vivo
[21] = AUC (0 to 24 hrs) in mouse at 10 mg/kg, po; type: ADME, organism-based; set-up: time < 24 hr, route oral, dose 10 mg/kg; conditions: in vivo
[22] = AUC (0 to 24 hrs) in rat at 10 mg/kg, po; type: ADME, organism-based; set-up: time < 24 hr, route oral, dose 10 mg/kg; conditions: in vivo
[23] = AUC (0 to 24 hrs) in dog at 1 mg/kg, po; type: ADME, organism-based, Canis lupus familiaris; set-up: time < 24 hr, route oral, dose 1 mg/kg; conditions: in vivo
[24] = AUC (0 to 24 hrs) in cynomolgus monkey at 1 mg/kg, po; type: ADME, organism-based, Macaca fascicularis; set-up: time < 24 hr, route oral, dose 1 mg/kg; conditions: in vivo
[25] = test system: Mus musculus; assay: Antiinflammatory activity against human CCR2 knock-in thioglycollate-induced peritonitis C57BL/6 mouse model assessed as reduction in inflammatory monocyte and macrophage infiltration in peritoneum administered orally twice daily for 2 days with first dose 1 hr prior to thioglycollate challenge; type: functional, organism-based; conditions: dose 10-160 mg/kg, time 2.0 day
[26] = species on record: Homo sapiens; assay: Selectivity ratio of IC50 for displacement of [125I]-CCL2 from CCR2 in human PBMC cells to IC50 for displacement of [125I]-MIP-1beta from CCR5 in human peripheral T cells; type: cell-based
[27] = molecular target: C-C chemokine receptor type 2 (Homo sapiens, UniProt P41597); assay: Antagonist activity at CCR2 in human whole blood assessed as inhibition of CCL2-induced CD11b upregulation; type: functional, tissue-based
C-C chemokine receptor type 2 (Homo sapiens, UniProt P41597), sequence (P41597 whole entry): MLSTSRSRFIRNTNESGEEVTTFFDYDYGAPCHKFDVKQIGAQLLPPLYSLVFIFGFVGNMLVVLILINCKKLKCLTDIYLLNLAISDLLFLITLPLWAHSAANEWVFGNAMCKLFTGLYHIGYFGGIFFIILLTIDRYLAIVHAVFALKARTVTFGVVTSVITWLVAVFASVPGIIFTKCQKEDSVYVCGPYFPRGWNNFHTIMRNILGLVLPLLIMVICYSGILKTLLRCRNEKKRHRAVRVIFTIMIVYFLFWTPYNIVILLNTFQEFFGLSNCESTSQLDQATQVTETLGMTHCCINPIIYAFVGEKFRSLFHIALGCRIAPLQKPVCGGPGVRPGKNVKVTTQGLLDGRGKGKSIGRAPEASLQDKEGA

hERG (KCNH2), sequence (Q12809 whole entry): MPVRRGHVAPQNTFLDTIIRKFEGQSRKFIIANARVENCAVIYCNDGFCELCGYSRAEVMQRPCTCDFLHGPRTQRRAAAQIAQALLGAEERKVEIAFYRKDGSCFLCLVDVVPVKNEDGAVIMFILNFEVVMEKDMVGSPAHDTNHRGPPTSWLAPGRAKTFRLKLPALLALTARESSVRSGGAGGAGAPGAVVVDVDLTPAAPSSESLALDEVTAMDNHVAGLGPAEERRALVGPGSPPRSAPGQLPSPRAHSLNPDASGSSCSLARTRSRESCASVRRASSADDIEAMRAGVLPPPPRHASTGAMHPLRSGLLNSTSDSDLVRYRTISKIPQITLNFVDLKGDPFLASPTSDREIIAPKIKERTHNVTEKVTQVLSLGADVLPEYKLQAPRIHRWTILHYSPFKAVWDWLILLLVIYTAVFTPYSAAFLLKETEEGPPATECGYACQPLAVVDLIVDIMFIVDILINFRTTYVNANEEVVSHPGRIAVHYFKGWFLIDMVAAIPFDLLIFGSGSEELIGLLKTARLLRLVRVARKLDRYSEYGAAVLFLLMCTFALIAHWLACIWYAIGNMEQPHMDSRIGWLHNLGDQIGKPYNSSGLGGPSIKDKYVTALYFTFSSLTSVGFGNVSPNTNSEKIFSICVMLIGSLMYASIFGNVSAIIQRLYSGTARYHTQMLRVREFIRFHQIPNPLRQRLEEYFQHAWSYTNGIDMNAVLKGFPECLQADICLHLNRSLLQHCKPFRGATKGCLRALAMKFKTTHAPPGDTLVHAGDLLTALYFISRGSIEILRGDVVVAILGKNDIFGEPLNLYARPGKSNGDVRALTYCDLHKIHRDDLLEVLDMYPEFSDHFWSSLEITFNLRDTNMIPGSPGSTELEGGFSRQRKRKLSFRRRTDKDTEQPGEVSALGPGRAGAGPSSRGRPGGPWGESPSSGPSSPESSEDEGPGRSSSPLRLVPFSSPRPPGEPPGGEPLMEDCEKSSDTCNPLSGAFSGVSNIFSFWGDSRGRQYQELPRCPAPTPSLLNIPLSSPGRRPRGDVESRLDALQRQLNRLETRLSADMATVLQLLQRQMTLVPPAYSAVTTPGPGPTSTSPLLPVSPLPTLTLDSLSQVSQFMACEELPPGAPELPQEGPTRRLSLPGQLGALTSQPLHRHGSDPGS
C-C chemokine receptor type 2 (Mus musculus, UniProt P51683), sequence (P51683 whole entry): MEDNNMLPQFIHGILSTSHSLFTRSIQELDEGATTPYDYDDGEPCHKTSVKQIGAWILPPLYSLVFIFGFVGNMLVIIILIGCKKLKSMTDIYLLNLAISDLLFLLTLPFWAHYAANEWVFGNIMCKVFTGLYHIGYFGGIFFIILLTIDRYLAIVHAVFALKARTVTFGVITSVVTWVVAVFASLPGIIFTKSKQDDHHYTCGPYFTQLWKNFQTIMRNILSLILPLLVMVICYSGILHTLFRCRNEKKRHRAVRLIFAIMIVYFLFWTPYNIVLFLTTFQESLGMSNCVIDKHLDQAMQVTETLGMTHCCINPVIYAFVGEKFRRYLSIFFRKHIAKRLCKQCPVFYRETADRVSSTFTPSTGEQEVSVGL

IC50 [1]: > 25000 nM | IC50 [2]: > 40000 nM | IC50 [3]: > 40000 nM | IC50 [4]: 45 nM | half-life at 0.5 µM [5]: 2.43 h | half-life at 0.5 µM [6]: > 3.33 h | half-life at 0.5 µM [7]: > 3.33 h | fraction unbound at 1 µM [9]: 0.71 | fraction unbound at 1 µM [10]: 0.58 | fraction unbound at 1 µM [11]: 0.69 | Papp [12]: 1.9 ×10⁻⁶ cm/s | clearance [13]: 85 mL/min/kg | clearance [14]: 50 mL/min/kg | clearance [15]: 17 mL/min/kg | clearance [16]: 16 mL/min/kg | bioavailability [17]: 100% | bioavailability [18]: 94% | bioavailability [19]: 61% | bioavailability [20]: 63% | AUC(0-t) at 24 h [21]: 5.41 µM·h | AUC(0-t) at 24 h [22]: 6.5 µM·h | AUC(0-t) at 24 h [23]: 1.23 µM·h | AUC(0-t) at 24 h [24]: 1.3 µM·h
SMILES: CC(=O)N[C@@H]1C[C@H](NC(C)(C)C)CC[C@@H]1N1CC[C@H](Nc2ncnc3cc(C(C)(C)C)nn23)C1=O [BMS-813160]
inhibition at 30 µM [8]: 9% | Activity [25]: Dose-Dependent Effect | Ratio IC50 [26]: 2

IC50 [27]: 2.6 nM
SMILES: CC(=O)N[C@@H]1C[C@H](NC(C)(C)C)CC[C@@H]1N1CC[C@H](Nc2ncnc3ccc(C(F)(F)F)cc23)C1=O
